Source: EP4741386A1 (Jiangsu Yahong Meditech Co., Ltd., priority 2023, dated 2025)

Legend:
MDA-MB-436 = experiment: CTG experiment for cell viability (CellTiter-Glo, 96-well plate, 7 days); format: cell-based; details: MDA-MB-436 cells, 7 days culture with compound
Experimental: Test Example 2: CTG experiment for cell viability
• 1. Object: to screen USP1 inhibitors by a CTG assay, using a 96-well plate. • 2. Materials: • The cells used were MDA-MB-436 (manufacturer: Nanjing Cobioer Biotechnology Co., Ltd.) and cultured in DMEM medium, • CTG (CellTiter-Glo® Luminescent Cell Viability Assay kit) (Promega, Cat. No.: G7572), • 96-well plate (Corning, Cat. No.: 3610). • 3. Compounds: all compounds were dissolved in 100% DMSO to obtain 50 mM stock solutions. • 4. Experimental method: • ① Plating: The cells to be tested were spread into a 96-well plate at a certain density, with 200 µL per well, and 200 µL of cell medium was added to the blank wells. […] The cell plate with the compounds was placed in an incubator at 37°C, and further cultured for 7 days prior to detection. • ④ Assay: The substrate and the buffer of CTG kit were mixed evenly. The cell plate with the compounds in Step ③ was taken out from the incubator, and left at room temperature to equilibrate for 30 minutes. The medium containing the compounds was removed from the cell plate, 100 µL of PBS and 50 µL of CTG reagent were added to each well, shaken and mixed for 3 minutes, and then incubated for 10 minutes at room temperature. The plate was read by a BIotek microplate-reader, with a parameter set to 567 CPM. • 5. Curve fitting
It was the same as that for the enzyme.

[1] = target: T1, Recombinant human His6-USP1/His6-UAF1 complex protein (Homo sapiens, UniProt O94782); experiment: In vitro inhibitory activity against USP1 (Ubiquitin Rhodamine 110 fluorescence detection, 384-well plate); format: biochemical; details: Ub-Rho substrate, 1 hour pre-incubation, read after 30 minutes
T1 construct: His6; purchased R&D E-568-050
Experimental: Test Example 1: In vitro inhibitory activity against USP1 […]
Experimental object: to screen compounds with inhibitory activity against USP1 […] by a fluorescence detection method, using a 384-well plate.
Experimental materials: Recombinant human His6-USP1/His6-UAF1 complex protein (R&D, Cat. No.: E-568-050), Ubiquitin Rhodamine 110 protein (Ub-Rho) (R&D, Cat. No.: U-555-050), 384-well plate (Perkin Elmer, Cat. No.: 6007279); all compounds were dissolved in 100% DMSO to obtain 50 mM stock solutions.
• 1) Preparation of 1 × assay buffer: 1 × assay buffer (modified Tris buffer) was prepared; • 2) Dilution of compounds: the compounds were transferred to an assay plate via Echo.

[2] = Homo sapiens, MDA-MB-436, 168 h

T1 sequence (O94782 whole entry): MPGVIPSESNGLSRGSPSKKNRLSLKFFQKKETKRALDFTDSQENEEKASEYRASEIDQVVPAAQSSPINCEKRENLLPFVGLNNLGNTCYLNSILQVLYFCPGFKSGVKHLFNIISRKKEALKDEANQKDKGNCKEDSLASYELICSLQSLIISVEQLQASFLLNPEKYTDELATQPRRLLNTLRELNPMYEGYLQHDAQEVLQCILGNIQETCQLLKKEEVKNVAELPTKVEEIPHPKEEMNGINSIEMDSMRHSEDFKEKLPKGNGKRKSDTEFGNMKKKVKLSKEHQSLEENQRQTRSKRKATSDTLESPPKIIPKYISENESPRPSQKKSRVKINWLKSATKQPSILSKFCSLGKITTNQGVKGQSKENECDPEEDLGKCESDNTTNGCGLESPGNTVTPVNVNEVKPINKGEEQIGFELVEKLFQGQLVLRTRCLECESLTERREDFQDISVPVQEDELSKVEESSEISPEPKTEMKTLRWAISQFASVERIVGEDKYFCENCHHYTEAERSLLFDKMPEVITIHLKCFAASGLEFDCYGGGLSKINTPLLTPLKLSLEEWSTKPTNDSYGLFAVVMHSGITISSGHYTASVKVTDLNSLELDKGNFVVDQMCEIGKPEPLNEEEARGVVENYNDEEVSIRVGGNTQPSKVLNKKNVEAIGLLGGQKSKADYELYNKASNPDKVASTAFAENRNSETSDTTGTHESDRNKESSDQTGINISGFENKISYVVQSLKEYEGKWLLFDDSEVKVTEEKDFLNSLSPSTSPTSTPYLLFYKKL
T1 sequence (Q8TAF3 whole entry partner): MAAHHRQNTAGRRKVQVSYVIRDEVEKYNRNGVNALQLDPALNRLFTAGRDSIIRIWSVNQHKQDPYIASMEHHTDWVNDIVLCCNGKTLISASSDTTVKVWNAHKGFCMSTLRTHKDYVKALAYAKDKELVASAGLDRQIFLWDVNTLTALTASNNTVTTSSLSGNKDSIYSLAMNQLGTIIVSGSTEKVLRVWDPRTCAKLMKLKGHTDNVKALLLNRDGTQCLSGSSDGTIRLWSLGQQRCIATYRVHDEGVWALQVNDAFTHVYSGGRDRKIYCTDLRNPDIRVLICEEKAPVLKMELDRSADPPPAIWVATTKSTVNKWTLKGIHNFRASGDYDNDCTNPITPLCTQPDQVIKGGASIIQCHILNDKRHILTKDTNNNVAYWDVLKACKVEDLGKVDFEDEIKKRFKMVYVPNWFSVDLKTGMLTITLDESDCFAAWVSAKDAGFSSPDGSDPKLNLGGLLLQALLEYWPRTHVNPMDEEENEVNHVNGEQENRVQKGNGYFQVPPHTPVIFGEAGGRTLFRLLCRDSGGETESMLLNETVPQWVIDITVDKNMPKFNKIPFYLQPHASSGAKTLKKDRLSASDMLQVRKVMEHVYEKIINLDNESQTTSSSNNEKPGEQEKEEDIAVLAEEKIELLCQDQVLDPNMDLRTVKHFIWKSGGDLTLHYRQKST

## COc1cnc(-c2c(Cl)cnn2C(C)C)nc1N(C)CC1CCN(c2ccccn2)CC1 [Example 161, 2-(4-Chloro-1-isopropyl-1H-pyrazol-5-yl)-5-methoxy-N-methyl-N-((1-(pyridin-2-yl)piperidin-4-yl)methyl)pyrimidin-4-amine]
MDA-MB-436; [2]
  IC50: 0.537 µM
[1]
  IC50: 0.006 µM

## COc1cnc(-c2ccccc2C(C)C)nc1NCC12CCC(c3ccc(C(F)(F)F)cn3)(CC1)CC2 [Example 23, 2-(2-Isopropylphenyl)-5-methoxy-N-((4-(5-(trifluoromethyl)pyridin-2-yl)bicyclo[2.2.2]octan-1-yl)methyl)pyrimidin-4-amine]
MDA-MB-436; [2]
  IC50: 0.0331 µM
[1]
  IC50: 0.033 µM

## COc1cnc(-c2c(OC)ncnc2C2CC2)nc1NC[C@H]1CC[C@H](c2nc(C(F)(F)F)cn2C)CC1 [Example S20]
MDA-MB-436; [2]
  IC50: 0.0214 µM
[1]
  IC50: 0.019 µM

## COc1cnc(-c2c(OC)ncnc2C2CC2)nc1N(Cc1ccc(-c2nc(C(F)(F)F)cn2C)cc1)C1CC1 [Example 141, N,4'-Dicyclopropyl-5,6'-dimethoxy-N-(4-(1-methyl-4-(trifluoromethyl)-1H-imidazol-2-yl)benzyl)-[2,5'-bipyrimidin]-4-amine]
MDA-MB-436; [2]
  IC50: 0.0767 µM
[1]
  IC50: 0.0095 µM

## COc1cnc(-c2c(OC)ncnc2C2CC2)nc1NCc1ccc(-c2nc(C)cn2C(F)F)cc1 [Example 105, 4'-Cyclopropyl-N-(4-(1-(difluoromethyl)-4-methyl-1H-imidazol-2-yl)benzyl)-5,6'-dimethoxy-[2,5'-bipyrimidin]-4-amine]
MDA-MB-436; [2]
  IC50: 0.124 µM
[1]
  IC50: 0.06 µM

## COc1ncnc(C2CC2)c1-c1ncc(OC(C)C)c(NCc2ccc(-c3nc(C(F)(F)F)cn3C)cc2)n1 [Example 111, 4'-Cyclopropyl-5-isopropoxy-6'-methoxy-N-(4-(1-methyl-4-(trifluoromethyl)-1H-imidazol-2-yl)benzyl)-[2,5'-bipyrimidin]-4-amine]
MDA-MB-436; [2]
  IC50: 0.0881 µM
[1]
  IC50: 0.0104 µM

## Cc1cc(C(F)(F)F)nn1-c1ccc(CN2C(=O)COc3cnc(-c4ccccc4C(C)C)nc32)cc1 [Example 15, 2-(2-Isopropylphenyl)-8-(4-(5-methyl-3-(trifluoromethyl)-1H-pyrazol-1-yl)benzyl)-6H-pyrimido[5,4-b][1,4]oxazin-7(8H)-one]
MDA-MB-436; [2]
  IC50: 0.301 µM
[1]
  IC50: 0.0068 µM

## COc1cnc(-c2c(Cl)cnn2C(C)C)nc1N(C)CC12CCC(c3nc(C(F)(F)F)cn3C(C)C)(CC1)OC2 [Example S13, 2-(4-Chloro-1-isopropyl-1H-pyrazol-5-yl)-N-((1-(1-isopropyl-4-(trifluoromethyl)-1H-imidazol-2-yl)-2-oxabicyclo[2.2.2]oct-4-yl)methyl)-5-methoxy-N-methylpyrimidin-4-amine]
MDA-MB-436; [2]
  IC50: 0.0608 µM
[1]
  IC50: 0.013 µM

## COc1cnc(-c2c(OC)ncnc2OC)nc1NC[C@H]1CC[C@H](c2nc(C(F)(F)F)cn2C2CC2)CC1 [Example S29, N-(((1R,4R)-4-(1-cyclopropyl-4-(trifluoromethyl)-1H-imidazol-2-yl)cyclohexyl)methyl)-4',5,6'-trimethoxy-[2,5'-bipyrimidin]-4-amine]
MDA-MB-436; [2]
  IC50: 0.338 µM
[1]
  IC50: 0.015 µM

## CC(C)c1ccccc1-c1nc(NCc2ccc(-c3nc(C(F)(F)F)cn3C)cc2)c2occc2n1 [Example 33, 2-(2-Isopropylphenyl)-N-(4-(1-methyl-4-(trifluoromethyl)-1H-imidazol-2-yl)benzyl)furo[3,2-d]pyrimidin-4-amine]
MDA-MB-436; [2]
  IC50: 0.0018 µM
[1]
  IC50: 0.0012 µM

## COc1cnc(-c2c(OC)ncnc2C2CC2)nc1NCC1CCC(c2nc(C(F)(F)F)cn2C(C)C)CC1 [Example S25, 4'-Cyclopropyl-N-((1R,4R)-4-(1-isopropyl-4-(trifluoromethyl)-1H-imidazol-2-yl)cyclohexyl)methyl)-5,6'-dimethoxy-[2,5'-bipyrimidin]-4-amine]
MDA-MB-436
  IC50: 0.0244 µM

## COc1cnc(-c2c(OC)ncnc2C2CC2)nc1N(C)Cc1ccc(-c2ccccn2)cc1 [Example 19, 4'-Cyclopropyl-5,6'-dimethoxy-N-methyl-N-(4-(pyridin-2-yl)benzyl)-[2,5'-bipyrimidin]-4-amine]
MDA-MB-436; [2]
  IC50: 0.0012 µM
[1]
  IC50: 0.024 µM

## CC(C)c1ccccc1-c1ncc(O)c(NCc2ccc(-c3nc(C(F)(F)F)cn3C)cc2)n1 [Example 89, 2-(2-Isopropylphenyl)-4-((4-(1-methyl-4-(trifluoromethyl)-1H-imidazol-2-yl)benzyl)amino)pyrimidin-5-ol]
MDA-MB-436; [2]
  IC50: 0.243 µM
[1]
  IC50: 0.0144 µM

## COc1ncnc(C2CC2)c1-c1nc(NCc2ccc(-c3nc(C(F)(F)F)cn3C)s2)c2occc2n1 [Example 113, 2-(4-Cyclopropyl-6-methoxypyrimidin-5-yl)-N-((5-(1-methyl-4-(trifluoromethyl)-1H-imidazol-2-yl)thiophen-2-yl)methyl)furo[3,2-d]pyrimidin-4-amine]
MDA-MB-436; [2]
  IC50: 0.0872 µM
[1]
  IC50: 0.023 µM

## COc1cnc(-c2c(C)cnn2C2CC2)nc1N(C)Cc1ccc(-c2nc(C(F)(F)F)cn2C)cc1 [Example 198, 2-(1-Cyclopropyl-4-methyl-1H-pyrazol-5-yl)-5-methoxy-N-methyl-N-(4-(1-methyl-4-(trifluoromethyl)-1H-imidazol-2-yl)benzyl)pyrimidin-4-amine]
MDA-MB-436; [2]
  IC50: 0.0056 µM
[1]
  IC50: 0.0032 µM

## COc1cnc(-c2c(OC)ncnc2C2CC2F)nc1NCC12CCC(c3nc(C(F)(F)F)cn3C)(CC1)CC2 (centres unmarked) [Example S18, 4'-(2-Fluorocyclopropyl)-5,6'-dimethoxy-N-((4-(1-methyl-4-(trifluoromethyl)-1 H-imidazol-2-yl)bicyclo[2.2.2]oct-1-yl)methyl)-[2,5'-bipyrimidin]-4-amine]
MDA-MB-436; [2]
  IC50: 0.0107 µM
[1]
  IC50: 0.012 µM

## COc1cnc(-c2ccccc2C(C)C)nc1N(C)Cc1ccc(-c2nc(C(F)(F)F)cn2C)cc1 [Example 3, 2-(2-Isopropylphenyl)-5-methoxy-N-methyl-N-(4-(1-methyl-4-(trifluoromethyl)-1H-imidazol-2-yl)benzyl)pyrimidin-4-amine]
MDA-MB-436; [2]
  IC50: 0.0064 µM
[1]
  IC50: 0.0028 µM

## c1ccc(-c2ccc(CNc3nc(-c4cccnc4C4CC4)nc4ccoc34)cc2)nc1 [Example 155, 2-(2-Cyclopropylpyridin-3-yl)-N-(4-(pyridin-2-yl)benzyl)furo[3,2-d]pyrimidin-4-amine]
MDA-MB-436; [2]
  IC50: 0.0857 µM
[1]
  IC50: 0.012 µM

## COc1cnc(-c2cccnc2C2CC2)nc1N(C)CC1CCN(c2ccccn2)CC1 [Example 151, 2-(2-Cyclopropylpyridin-3-yl)-5-methoxy-N-methyl-N-((1-(pyridin-2-yl)piperidin-4-yl)methyl)pyrimidin-4-amine]
MDA-MB-436; [2]
  IC50: 0.0584 µM
[1]
  IC50: 0.072 µM

## COc1cc(-c2nc(C(F)(F)F)cn2C)ccc1CNc1nc(-c2ccccc2C2CC2)nc2ccoc12 [Example 175, 2-(2-Cyclopropylphenyl)-N-(2-methoxy-4-(1-methyl-4-(trifluoromethyl)-1H-imidazol-2-yl)benzyl)furo[3,2-d]pyrimidin-4-amine]
MDA-MB-436; [2]
  IC50: 0.0871 µM
[1]
  IC50: 0.0036 µM

## COc1cnc(-c2c(OC)ncnc2C2CC2)nc1N(C)C[C@H]1CC[C@H](c2nc(C(F)(F)F)cn2C2CC2)CC1 [Example S28, 4'-Cyclopropyl-N-(((1R,4R)-4-(1-cyclopropyl-4-(trifluoromethyl)-1H-imidazol-2-yl)cyclohexyl)methyl)-5,6'-dimethoxy-N-methyl-[2,5'-bipyrimidin]-4-amine]
MDA-MB-436
  IC50: 0.0003 µM

## COc1ncnc(C2CC2)c1-c1ncc2c(n1)N(Cc1ccc(-c3nc(C(F)(F)F)cn3C)cc1)CCO2 [Example 21, 2-(4-Cyclopropyl-6-methoxypyrimidin-5-yl)-8-(4-(1-methyl-4-(trifluoromethyl)-1H-imidazol-2-yl)benzyl)-7,8-dihydro-6H-pyrimido[5,4-b][1,4]oxazine]
MDA-MB-436; [2]
  IC50: 0.0018 µM

## COc1ncnc(C2CC2)c1-c1nc(NCc2ccc(-c3ccccn3)cc2)c2occc2n1 [Example 34, 2-(4-Cyclopropyl-6-methoxypyrimidin-5-yl)-N-(4-(pyridin-2-yl)benzyl)furo[3,2-d]pyrimidin-4-amine]
MDA-MB-436; [2]
  IC50: 0.119 µM

## Cn1cc(C(F)(F)F)nc1-c1ccc(CNc2nc(-c3cccnc3C3CC3)ncc2OC(F)F)cc1 [Example 156, 2-(2-Cyclopropylpyridin-3-yl)-5-(difluoromethoxy)-N-(4-(1-methyl-4-(trifluoromethyl)-1H-imidazol-2-yl)benzyl)pyrimidin-4-amine]
MDA-MB-436; [2]
  IC50: 0.0595 µM

## COc1ncnc(C2CC2)c1-c1ncc2c(n1)N(Cc1ccc(-c3nc(C(F)(F)F)cn3C)cc1)C(=O)CO2 [Example 18, 2-(4-Cyclopropyl-6-methoxypyrimidin-5-yl)-8-(4-(1-methyl-4-(trifluoromethyl)-1H-imidazol-2-yl)benzyl)-6H-pyrimido[5,4-b][1,4]oxazin-7(8H)-one]
MDA-MB-436; [2]
  IC50: 0.313 µM
